Experimental data from ChEMBL document CHEMBL1909046, “DrugMatrix in vitro pharmacology data”.

Tests used:
[1] = target: Sodium-dependent dopamine transporter (Homo sapiens, UniProt Q01959); experiment: DRUGMATRIX: Dopamine Transporter radioligand binding (ligand: [125I] RTI-55); format: cell membranes, CHO-K1, Membrane; settings: Not Active = under 50% inhibition at 10 µM
[2] = target: Beta-3 adrenergic receptor (Homo sapiens, UniProt P13945); experiment: DRUGMATRIX: Adrenergic beta3 radioligand binding (ligand: [125I] Cyanopindolol); format: cell membranes, HEK293, Membrane; settings: hek293; Not Active = under 50% inhibition at 10 µM
Chain of Beta-3 adrenergic receptor (P13945 whole entry): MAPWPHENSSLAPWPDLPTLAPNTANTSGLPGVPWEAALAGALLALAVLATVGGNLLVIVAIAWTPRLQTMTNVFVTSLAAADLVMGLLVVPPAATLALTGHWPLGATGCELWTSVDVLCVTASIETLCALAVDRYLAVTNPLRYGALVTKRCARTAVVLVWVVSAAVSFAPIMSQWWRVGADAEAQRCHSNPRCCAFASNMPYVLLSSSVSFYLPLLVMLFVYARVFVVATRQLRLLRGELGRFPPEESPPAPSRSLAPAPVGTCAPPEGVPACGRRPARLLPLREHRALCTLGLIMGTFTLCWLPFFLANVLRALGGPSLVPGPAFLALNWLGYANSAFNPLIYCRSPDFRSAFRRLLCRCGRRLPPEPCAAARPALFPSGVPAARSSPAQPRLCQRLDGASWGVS

Caspase-1 = target: T1, Caspase-1 (Homo sapiens, UniProt P29466); set-up: species or system Escherichia coli;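 note: Caspase-1 enzyme inhibition assay with a peptide substrate; in other assays of this panel Not Active means under 50% inhibition at 10 µM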
T1 sequence (P29466 whole entry): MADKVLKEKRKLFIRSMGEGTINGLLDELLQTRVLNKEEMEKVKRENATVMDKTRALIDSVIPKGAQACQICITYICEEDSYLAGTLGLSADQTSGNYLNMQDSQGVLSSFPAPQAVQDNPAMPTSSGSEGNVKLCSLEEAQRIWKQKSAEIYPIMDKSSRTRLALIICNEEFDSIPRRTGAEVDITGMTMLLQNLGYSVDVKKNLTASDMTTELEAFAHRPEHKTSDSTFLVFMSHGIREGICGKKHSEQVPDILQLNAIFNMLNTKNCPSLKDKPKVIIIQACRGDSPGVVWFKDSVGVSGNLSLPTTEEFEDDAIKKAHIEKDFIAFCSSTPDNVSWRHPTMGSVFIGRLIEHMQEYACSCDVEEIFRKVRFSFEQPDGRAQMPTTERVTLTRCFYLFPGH

[3] = DRUGMATRIX: ATPase, Na+/K+ enzyme inhibition (substrate: ATP); format: tissue-based, Sus scrofa, Heart; settings: Not Active = under 50% inhibition at 10 µM
[4] = target: T2, 3-hydroxy-3-methylglutaryl-coenzyme A reductase (Homo sapiens, UniProt P04035); set-up: species or system Escherichia coli;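 note: enzyme inhibition assay of HMG-CoA reductase using radiolabeled [14C]HMG-CoA as substrate; in other assays of this panel Not Active means under 50% inhibition at 10 µM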
T2 sequence (P04035 whole entry): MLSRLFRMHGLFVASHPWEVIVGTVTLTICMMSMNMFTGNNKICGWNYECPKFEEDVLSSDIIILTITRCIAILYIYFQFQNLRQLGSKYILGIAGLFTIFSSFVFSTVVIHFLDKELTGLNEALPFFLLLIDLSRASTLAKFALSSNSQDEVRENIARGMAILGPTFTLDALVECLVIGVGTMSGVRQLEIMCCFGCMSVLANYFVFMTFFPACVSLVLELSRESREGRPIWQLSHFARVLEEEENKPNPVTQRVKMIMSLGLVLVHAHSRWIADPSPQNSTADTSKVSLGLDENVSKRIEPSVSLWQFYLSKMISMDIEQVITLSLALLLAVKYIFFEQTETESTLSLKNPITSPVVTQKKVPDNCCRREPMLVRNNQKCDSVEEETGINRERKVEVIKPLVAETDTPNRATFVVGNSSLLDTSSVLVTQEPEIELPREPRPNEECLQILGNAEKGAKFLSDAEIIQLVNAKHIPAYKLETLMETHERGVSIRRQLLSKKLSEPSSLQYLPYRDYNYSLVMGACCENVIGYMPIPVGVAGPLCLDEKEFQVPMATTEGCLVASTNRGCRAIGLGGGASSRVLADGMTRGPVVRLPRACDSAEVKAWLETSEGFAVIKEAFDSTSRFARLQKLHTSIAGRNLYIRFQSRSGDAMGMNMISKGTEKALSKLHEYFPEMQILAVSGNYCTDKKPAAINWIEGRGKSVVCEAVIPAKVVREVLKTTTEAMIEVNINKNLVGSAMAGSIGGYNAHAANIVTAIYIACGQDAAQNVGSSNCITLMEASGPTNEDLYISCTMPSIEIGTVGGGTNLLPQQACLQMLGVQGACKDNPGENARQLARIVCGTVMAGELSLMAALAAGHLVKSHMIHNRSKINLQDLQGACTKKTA

[5] = target: T3, Cholecystokinin receptor type A (Homo sapiens, UniProt P32238); format: cell membranes, Membrane; settings: 1321-n1; note: in other assays of this panel Not Active means under 50% inhibition at 10 µM
T3 sequence (P32238 whole entry): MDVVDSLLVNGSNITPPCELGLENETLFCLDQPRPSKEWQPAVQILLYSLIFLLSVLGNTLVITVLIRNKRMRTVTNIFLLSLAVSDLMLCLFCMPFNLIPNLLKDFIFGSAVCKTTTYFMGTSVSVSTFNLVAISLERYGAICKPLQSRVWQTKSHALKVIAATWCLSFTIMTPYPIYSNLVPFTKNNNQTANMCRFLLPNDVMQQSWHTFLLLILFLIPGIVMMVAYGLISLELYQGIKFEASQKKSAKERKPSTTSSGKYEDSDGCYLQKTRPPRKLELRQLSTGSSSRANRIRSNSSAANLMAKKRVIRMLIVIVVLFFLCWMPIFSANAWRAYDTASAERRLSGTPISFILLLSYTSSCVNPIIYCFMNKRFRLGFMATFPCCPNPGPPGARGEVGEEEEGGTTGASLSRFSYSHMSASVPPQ

[6] = target: Kappa-type opioid receptor (Homo sapiens, UniProt P41145); experiment: DRUGMATRIX: Opiate kappa (OP2, KOP) radioligand binding (ligand: [3H] Diprenorphine); format: cell membranes, HEK293, Membrane; settings: hek293; Not Active = under 50% inhibition at 10 µM
Chain of Kappa-type opioid receptor (P41145 whole entry): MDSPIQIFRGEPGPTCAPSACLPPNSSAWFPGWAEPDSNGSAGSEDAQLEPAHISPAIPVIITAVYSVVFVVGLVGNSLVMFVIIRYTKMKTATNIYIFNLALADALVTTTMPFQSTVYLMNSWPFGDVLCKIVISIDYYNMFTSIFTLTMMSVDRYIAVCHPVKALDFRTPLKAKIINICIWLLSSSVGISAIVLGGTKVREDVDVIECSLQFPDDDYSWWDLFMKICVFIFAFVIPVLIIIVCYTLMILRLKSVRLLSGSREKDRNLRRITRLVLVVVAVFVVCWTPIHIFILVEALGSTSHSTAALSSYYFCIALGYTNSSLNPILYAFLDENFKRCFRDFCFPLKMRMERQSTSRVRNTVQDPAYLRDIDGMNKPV

Chain of Sodium-dependent dopamine transporter (Q01959 whole entry): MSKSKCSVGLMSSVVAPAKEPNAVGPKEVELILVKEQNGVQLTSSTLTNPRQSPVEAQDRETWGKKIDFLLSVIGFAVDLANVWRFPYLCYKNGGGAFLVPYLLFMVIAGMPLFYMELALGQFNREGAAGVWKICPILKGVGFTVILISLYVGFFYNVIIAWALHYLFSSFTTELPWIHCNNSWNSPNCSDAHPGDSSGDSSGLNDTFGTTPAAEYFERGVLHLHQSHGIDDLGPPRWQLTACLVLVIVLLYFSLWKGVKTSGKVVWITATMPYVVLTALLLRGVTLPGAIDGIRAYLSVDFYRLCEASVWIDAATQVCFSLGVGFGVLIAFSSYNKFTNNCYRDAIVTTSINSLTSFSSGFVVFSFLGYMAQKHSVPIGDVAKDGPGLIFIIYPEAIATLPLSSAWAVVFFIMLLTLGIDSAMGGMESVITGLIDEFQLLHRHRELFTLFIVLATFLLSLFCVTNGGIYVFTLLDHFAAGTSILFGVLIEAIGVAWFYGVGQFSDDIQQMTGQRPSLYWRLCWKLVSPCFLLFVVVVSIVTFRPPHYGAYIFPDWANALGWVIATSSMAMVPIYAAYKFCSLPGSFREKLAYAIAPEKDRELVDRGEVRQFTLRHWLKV

Compound	IC50 ([1]; cho-k1)	IC50 [2]	IC50 (Caspase-1)	IC50 [3]	Ki [3]	IC50 [4]	IC50 [5]	IC50 [6]	IC50 ([1]; read-out: IC50) [nM]	Ki ([1]; read-out: Ki) [nM]
Oc1c(I)cc(I)c2cccnc12 [IODOQUINOL]	Not Active	Not Active	Not Active	Not Active	Not Active	Not Active	Not Active	Not Active	–	–
CN1[C@@H]2CC[C@H]1C[C@@H](OC(=O)c1c[nH]c3ccccc13)C2 [TROPISETRON]	Not Active	Not Active	Not Active	Not Active	Not Active	Not Active	Not Active	Not Active	–	–
NC(=O)c1ccccc1O [SALICYLAMIDE]	Not Active	Not Active	Not Active	Not Active	Not Active	Not Active	Not Active	Not Active	–	–
COC(=O)C1=C(C)NC(C)=C(C(=O)OC)C1c1ccccc1[N+](=O)[O-] [NIFEDIPINE]	Not Active	Not Active	Not Active	Not Active	Not Active	Not Active	Not Active	Not Active	–	–
NCCCC[C@H](N[C@@H](CCc1ccccc1)C(=O)O)C(=O)N1CCC[C@H]1C(=O)O [LISINOPRIL ANHYDROUS]	Not Active	Not Active	Not Active	Not Active	Not Active	Not Active	Not Active	Not Active	–	–
CC(=O)S[C@@H]1CC2=CC(=O)CC[C@]2(C)[C@H]2CC[C@@]3(C)[C@@H](CC[C@@]34CCC(=O)O4)[C@H]12 [SPIRONOLACTONE]	Not Active	Not Active	Not Active	Not Active	Not Active	Not Active	Not Active	Not Active	–	–
CC(C)(C)NCC(O)c1ccc(O)c(CO)c1 (stereo unspecified) [ALBUTEROL]	Not Active	Not Active	Not Active	Not Active	Not Active	Not Active	Not Active	Not Active	–	–
COC(=O)[C@@H]1[C@H]2C[C@H]3c4[nH]c5ccccc5c4CCN3C[C@@H]2CC[C@@H]1O [YOHIMBINE]	Not Active	Not Active	Not Active	Not Active	Not Active	Not Active	Not Active	Not Active	–	–
CO[C@@H]1[C@@H](O[C@@H]2O[C@H](C)[C@@H](O[C@H]3C[C@@](C)(O)[C@@H](OC(=O)CC(C)C)[C@H](C)O3)[C@H](N(C)C)[C@H]2O)[C@@H](CC=O)C[C@@H](C)[C@@H](O)/C=C/C=C/C[C@@H](C)OC(=O)C[C@H]1O [KITASAMYCIN]	Not Active	Not Active	Not Active	Not Active	Not Active	Not Active	Not Active	Not Active	–	–
Clc1ccc(C(c2ccccc2Cl)C(Cl)Cl)cc1 (stereo unspecified) [MITOTANE]	–	Not Active	Not Active	Not Active	Not Active	Not Active	Not Active	Not Active	1000	795
